Measurements: PMC3499525 (PLoS ONE, 2012)
Values belong to the compound of their own block, whether it stands above or below them.

Assays:
[1] = test system: phosphorylated p42 and p44 MAPK in neonatal rat ventricular myocytes (NRVM); assay: p42/44 MAPK activation in NRVM (Western blot); assay type: cell-based
Method: PC12 cells originated from rat pheochromocytoma purchased from ATCC, were grown to confluence in T75 flasks, containing DMEM (1000 mg/l glucose) and supplemented with 5% fetal calf serum (FCS), 10% horse serum, and a mixture of 1% of penicillin/streptomycin/nystatin [11]. NRVM cultures were prepared from ventricles of 1–2 day old Sprague-Dawley rats, as previously described (ethics number Il-106-11-2007). […]
(§1) Phosphorylation of MAPK was analyzed in cell lysates and the loading of the lanes normalized to levels of non-phospho MAPK.
PC12 cells or NRVM cultures were resuspended in RIPA (20 mM Tris–HCl pH 7.4, 200 mM NaCl, 1% Triton-X 100, 0.1% SDS, 0.2% sodium deoxycholate, 5 mM EDTA) containing cocktail protease inhibitors (Roche, Basel Switzerland). […] Protein content was determined using the Bradford method (Sigma Chemical Co. St. Louis, MO, USA).Equal amounts of sample were resolved on sodium dodecyl sulfate-polyacrylamide gel electrophoresis (SDS-PAGE) and blotted onto polyvinylidenedifluoride membranes (Millipore, Billerica, MA, USA). […] Quantification of the results was accomplished by measuring the optical density of the labeled bands from the autoradiograms, using the computerized imaging program Bio-1D (VilberLourmat Biotech. Bioprof., France). […]

[2] = test system: phosphorylated p42 and p44 MAPK in PC12 cells; assay: p42/44 MAPK activation in PC12 cells (Western blot); assay type: cell-based, rat
Method: as §1
(§2) PC12 cells originated from rat pheochromocytoma purchased from ATCC, were grown to confluence in T75 flasks, containing DMEM (1000 mg/l glucose) and supplemented with 5% fetal calf serum (FCS), 10% horse serum, and a mixture of 1% of penicillin/streptomycin/nystatin [11]. NRVM cultures were prepared from ventricles of 1–2 day old Sprague-Dawley rats, as previously described (ethics number Il-106-11-2007). Briefly, the ventricles of the excised hearts were dissociated with 0.1% RDB, a protease isolated from fig tree extract (Institute of Biology, Nes-Ziona,Israel), and the dispersed cells were resuspended in F-10 culture medium containing 1 mM CaCl2, 100 U/mL penicillin-streptomycin, 5% FCS, 5% donor horse serum, and 25 mg of bromodeoxyuridine (5-bromo-2′-deoxyuridine, BrdU).Cell cultures were incubated at 37°C in a humid 5% CO2-95% air environment. For all experiments, cells were initially seeded in full-serum cultured media and then replaced into serum-free media containing the respective supplements.
PC12 cells or NRVM cultures were resuspended in RIPA (20 mM Tris–HCl pH 7.4, 200 mM NaCl, 1% Triton-X 100, 0.1% SDS, 0.2% sodium deoxycholate, 5 mM EDTA) containing cocktail protease inhibitors (Roche, Basel Switzerland). The lysates were precleared by centrifugation. Protein content was determined using the Bradford method (Sigma Chemical Co. St. Louis, MO, USA).Equal amounts of sample were resolved on sodium dodecyl sulfate-polyacrylamide gel electrophoresis (SDS-PAGE) and blotted onto polyvinylidenedifluoride membranes (Millipore, Billerica, MA, USA). Membranes were treated with blocking buffer (5% dry milk, 0.05% Tween 20 in TBS). Primary antibodies were diluted in the blocking buffer and incubated with membranes for 20 h at 4°C followed by incubation (1 h at room temperature) in dilutions of horseradish peroxidase-conjugated secondary antibodies in the same buffer. Following antibody incubations, membranes were washed in 0.5% Tween 20 TBS. Detection was achieved using Western blotting ECL reagent (Amersham, Pharmacia, Little Chalfort Buckinghamshire, UK). Quantification of the results was accomplished by measuring the optical density of the labeled bands from the autoradiograms, using the computerized imaging program Bio-1D (VilberLourmat Biotech. Bioprof., France). The values were normalized to β-actin intensity levels.

[3] = test system: cleaved caspase 3 in NRVM; assay: Cleaved caspase 3 in serum-deprived NRVM (Western blot); assay type: cell-based, rat; details: serum free medium, efaroxan 10 µM, TVP1022 20 µM
Method: NRVM cells were incubated in full serum medium for 24 h before replacing to serum free medium. […] A. Apoptotic nuclei were identified by TUNEL analysis. […] B. Representative Western blots and quantitative results of cleaved caspase 3 protein expression. The loading of the lanes was normalized to β-actin levels.
PC12 cells or NRVM cultures were resuspended in RIPA (20 mM Tris–HCl pH 7.4, 200 mM NaCl, 1% Triton-X 100, 0.1% SDS, 0.2% sodium deoxycholate, 5 mM EDTA) containing cocktail protease inhibitors (Roche, Basel Switzerland). The lysates were precleared by centrifugation. Protein content was determined using the Bradford method (Sigma Chemical Co. St. Louis, MO, USA).Equal amounts of sample were resolved on sodium dodecyl sulfate-polyacrylamide gel electrophoresis (SDS-PAGE) and blotted onto polyvinylidenedifluoride membranes (Millipore, Billerica, MA, USA). Membranes were treated with blocking buffer (5% dry milk, 0.05% Tween 20 in TBS). […] Quantification of the results was accomplished by measuring the optical density of the labeled bands from the autoradiograms, using the computerized imaging program Bio-1D (VilberLourmat Biotech. Bioprof., France). […]

[4] = test system: neonatal rat ventricular myocytes (NRVM); assay: Serum deprivation-induced apoptosis in NRVM (TUNEL); assay type: cell-based; details: serum free medium, efaroxan 10 µM pre-incubation, TVP1022 20 µM
Method: as §2, with “For all experiments, cells were initially seeded in full-serum cultured media and then replaced into serum-free media containing the respective supplements.” left out
In situ DNA fragmentation was performed by the terminal deoxynucleotidyl transferase-mediated deoxyuridine triphosphate-digoxigenin nick end labeling (TUNEL). […] Quantification of the apoptotic cells was calculated as the ratio of TUNEL-positive cells to the total number of cells in the same slide.
NRVM cells were incubated in full serum medium for 24 h before replacing to serum free medium. […] B. Representative Western blots and quantitative results of cleaved caspase 3 protein expression. […]

[5] = target: I2 imidazoline receptor; assay: I2 imidazoline receptor binding assay ([3H]idazoxan); details: [3H]idazoxan 2 nM, rat cerebral cortex
Description: (§3) The specific ligand binding to the receptors is defined as the difference between the total binding and the nonspecific binding determined in the presence of an excess of unlabelled ligand, as described in Table 1.
(§4) The specific ligand binding to the receptors is defined as the difference between the total binding and the nonspecific binding determined in the presence of an excess of unlabelled ligand (Table 1). The IC50 values (concentration causing a half-maximal inhibition of control specific binding) and Hill coefficients (nH) were determined by non-linear regression analysis of the competition curves generated with mean replicate values using Hill equation curve fitting [Y = D+((A – D)/(1+(C/C50) nH)], where Y = specific binding, D = minimum specific binding, A = maximum specific binding, C = compound concentration, C50 = IC50, and nH = slope factor). This analysis was performed using SigmaPlot ® 4.0 for Windows ® (© 1997 by SPSS Inc.). The inhibition constants (Ki) were calculated using the Cheng Prusoffequation [Ki = IC50/(1+(L/KD)], where L = concentration of radioligand in the assay, and KD = affinity of the radioligand for the receptor).

[6] = target: I1 imidazoline receptor; assay: I1 imidazoline receptor binding assay ([3H]clonidine); details: [3H]clonidine 15 nM, bovine adrenal medulla glands
Description: as §3, §4

Structure (SMILES): COc1cccc(-c2cc(=O)c3ccccc3o2)c1N [PD98059]
- effect on TVP1022-induced ERK phosphorylation ([1]; PD98059 30 µM pre-incubation 30 min): abolished
- effect on TVP1022-induced increase of MAPK phosphorylation ([2]; PD98059 30 µM pretreatment 30 min, TVP1022 20 µM): significantly blocked

Structure (SMILES): CCC1(C2=NCCN2)Cc2ccccc2O1 (stereo not drawn) [efaroxan]
- effect on TVP1022-mediated increases in p42 and p44 MAPK phosphorylation ([1]; efaroxan 10 µM pre-incubation, TVP1022 10 and 20 µM): antagonized
- effect on TVP1022-suppressive effects on caspase 3 [3]: markedly reversed
- effect on TVP1022-induced MAPK activation ([2]; efaroxan 10 µM pre-incubation 30 min, TVP1022 20 µM): abolished
- effect on moxonidine-induced phosphorylation of p42 and p44 MAPK ([2]; efaroxan 10 µM pre-incubation, moxonidine 1 µM): abolished
- effect on TVP1022-induced cytoprotective effect (TUNEL) [4]: markedly prevented

- IC50 ([5]; 30 min 22°C): 16 nM
- Ki ([5]; Cheng Prusoff equation): 10 nM
Structure (SMILES): c1ccc2c(c1)OCC(C1=NCCN1)O2 (stereo not drawn) [idazoxan, reference compound]

Structure (SMILES): COc1nc(C)nc(Cl)c1N=C1NCCN1 [monoxidine, moxonidine]
- effect on phosphorylation of p42 and p44 MAPK ([2]; 1 µM, 30 min): increased

- IC50 ([6]; 60 min 22°C): 160 nM
- Ki ([6]; Cheng Prusoff equation): 84 nM
Structure (SMILES): C1COC(NC(C2CC2)C2CC2)=N1 [rilmenidine, reference compound]
